Source: ChEMBL document CHEMBL1127584, “Crystal-structure-based design and synthesis of novel C-terminal inhibitors of HIV protease” (J Med Chem, 1994)
pKi: −log10 of the molar value.

These compounds were tested against Human immunodeficiency virus type 1 protease (Human immunodeficiency virus 1, UniProt Q72874) (assay: Inhibition of recombinant HIV-1 protease).
`NC(=O)C[C@H](NC(=O)c1ccc2ccccc2n1)C(=O)NC(Cc1ccccc1)[C@@H](O)CCC(=O)NC(c1ccccc1)c1cc2ccccc2[nH]1` (some centres undefined) was tested, and the pKi was 7.37. `COC(=O)[C@@H](CC(=O)[C@@H](NC(=O)CC[C@H](O)[C@H](Cc1ccccc1)NC(=O)[C@H](C)NC[C@H](C)N)C(C)C)C(C)C` showed a pKi of 7.74. In the case of `NC(=O)C[C@H](NC(=O)c1ccc2ccccc2n1)C(=O)NC(Cc1ccccc1)[C@@H](O)CCC(=O)NC(c1cccc(C(F)(F)F)c1)c1cc2ccccc2[nH]1` (some centres undefined), the pKi was 7.48. In the case of `NC(=O)C[C@H](NC(=O)c1ccc2ccccc2n1)C(=O)NC(Cc1ccccc1)[C@@H](O)CCC(=O)NC(c1ccccc1)c1nc2ccccc2[nH]1` (some centres undefined), the pKi was 6.32. With `NC(=O)C[C@H](NC(=O)c1ccc2ccccc2n1)C(=O)NC(Cc1ccccc1)[C@@H](O)C[C@@H](Cc1ccccc1)C(=O)NC(c1ccccc1)c1cc2ccccc2[nH]1` (some centres undefined) the pKi was 5.89. With `Cc1cccc(C(NC(=O)CC[C@H](O)C(Cc2ccccc2)NC(=O)[C@H](CC(N)=O)NC(=O)c2ccc3ccccc3n2)c2cc3ccccc3[nH]2)c1` (some centres undefined) the pKi was 7.41. Work on `NC(=O)C[C@H](NC(=O)c1ccc2ccccc2n1)C(=O)NC(Cc1ccccc1)[C@@H](O)CCC(=O)NC(c1cc2ccccc2[nH]1)C1CCCCC1` (some centres undefined) yielded a pKi of 6.74. `CC(C)CC(=O)N[C@H](C(=O)N[C@H](C(=O)N[C@@H](CC(C)C)[C@@H](O)CC(=O)N[C@@H](C)C(=O)N[C@@H](CC(C)C)[C@@H](O)CC(=O)O)C(C)C)C(C)C` [PEPSTATIN] was tested, and the pKi was 5.51. With `C[C@H](N)C(=O)N[C@@H](C)C(=O)N[C@@H](Cc1ccccc1)[C@@H](O)CCC(=O)NC(c1ccccc1)c1cc2ccccc2[nH]1` (some centres undefined) the pKi was 6.70.
